Laboratory results taken from patent publication US20220056075A1, “METHOD FOR TREATING OPIOID USE DISORDER” (THE ADMINISTRATORS OF THE TULANE EDUCATIONAL FUND, priority 2019, published 2022).
Several values for one entry are separate records, joined by “and”; a condition that tells them apart may be missing. Equal values may be shown once. Entries after “also recorded” stand apart in the source; their conditions may differ.

Key:
[1] = tested on: rats trained to discriminate morphine from vehicle; assay: Drug discrimination (DD), morphine-trained rats; details: for Response rate impairment %: highest dose tested (5.6 mg/Kg), percent of vehicle responding
Method: Drug Discrimination (DD): Rats were food deprived to approximately 85% of the weight of free feeding cohorts to establish operant responding for 45 mg food pellets (Bioserve, Frenchtown, N.J.) in standard operant chambers (MED Associates, St. Albans, Vt.). Rats were fed 10-20 g of standard food after daily DD sessions, and ˜3× the daily amount on weekends to maintain appropriate weight. DD consisted of 3 phases (Krivsky et al., 2006). In phase 1, rats were trained to lever press for food at a fixed ratio (FR) level 1 (i.e., 1 lever press=1 food pellet) using 2 levers with stimulus lights located above each lever and a food hopper between the levers during 120 min sessions. Responding on either lever extinguished the light and delivered a food pellet. […] Once >20 pellets were earned at FR9, sessions were shortened to 20 min and response requirements were set at FR10 and the left or right lever reinforced responding on alternate days. Once >20 pellets were earned on each lever at FR10, rats started phase 2 of DD training.
Only responses on the correct lever were reinforced and responses on the incorrect lever reset the response requirement on the correct lever. Criteria to move to phase 3 were as follows: >20 pellets per session, >90% injection appropriate lever responding, and <9 responses on the incorrect lever before the first food pellet reward.
Two paradigms were utilized to generate substitution curves: cumulative within-session and bolus between-session injections.
During substitution tests, both levers actively delivered food at an FR10 schedule. […] Doses were increased in ¼ log increments, with injections every 20 min followed 15 minutes later by DD sessions lasting 5 min each. […] The advantage of this procedure was that an entire dose-response was generated in one session.
Statistics: PRISM software (GraphPad, San Diego, Calif.) was used for one-way analysis of variance (ANOVA) with Newman-Keuls post-hoc comparisons to compare CPP groups, locomotor effects, hot plate, and DD response rates. Locomotor data recorded during the conditioning sessions were analyzed by 2-way ANOVA (session x drug) and data from the first session were subtracted from the final session to assess locomotor enhancement. Experimenters were blinded to treatment groups.

male rats = assay: Maintenance of established oxycodone self-administration (substitution); type: in vivo, rat
Method: Self-administration (SA): Self-administration tests were conducted in standard operant chambers (MED Associates, St. Albans, Vt.). Infusions were delivered through TYGON tubing threaded through metal spring leashes and attached to exterior infusion pumps. 3-hour sessions were conducted Monday-Friday during the dark cycle. At the start of each session, the house light was illuminated, and levers extended. […] For the first 5 sessions, rats were trained to lever press for oxycodone (0.1 mg/kg/infusion) on a FR1 reinforcement schedule. For the following 10 sessions, the dose of oxycodone was decreased to 0.05 mg/kg/infusion to increase lever responding.
Maintenance of established oxycodone self-administration: Following acquisition of oxycodone self-administration, animals were split into treatment groups counterbalanced for total oxycodone intake, average number of infusions obtained in the last 3 sessions, and average number of active lever pressings over the last 3 sessions. Ten maintenance sessions were conducted in the same way as oxycodone acquisition except rats were either maintained on 0.1 mg/kg/infusion oxycodone or had drug availability substituted with equi-antinociceptive 1 mg/kg/infusion ZH853 or vehicle.

glia = details: conditions where morphine activates glia; cited from earlier work
[2] = tested on: dopamine (DA) neurons in the posterior VTA; assay: VTA dopamine cell soma morphology (TH staining, STEREO INVESTIGATOR); type: in vivo, rat; details: 5 consecutive daily i.v. injections; morphine effect at 5.6 mg/Kg
Method: DA morphology analysis: Fifteen min following the final CPP test session, rats were anesthetized with a mixture of ketamine/xylazine (85/10 mg/Kg, i.p., respectively) and perfused intracardially with 200 mL of 0.1 mol/L phosphate buffered saline (PBS) immediately followed by 300 mL of 4% paraformaldehyde in 0.1 mol/L PBS (pH=7.4). Brains were removed and post-fixed at 4° C. in the same fixative for 18 h. After post-fixation, brains were incubated in 30% sucrose at 4° C. for 2 days and sectioned coronally on a cryostat at 40 μm at the level of the posterior VTA (Spiga et al., 2003; Chu et al., 2008). After 2 consecutive washes in PBS, sections were blocked with 5% normal donkey serum (NDS) for 1 h, and incubated with the primary antibody anti-tyrosine-hydroxylase (anti-TH, 1: 3000 Cell Signaling Technology, Danvers, Mass.) overnight at 4° C. Slices were washed twice in PBS, re-blocked for 1 h, and incubated with the secondary antibody ALEXA594 (Life Technologies, Carlsbad, Calif.), for 2 h. Sections were washed, mounted on slides with PROLONG GOLD (Life Technologies), and stored at 4° C. Posterior VTA sections were verified according to the atlas of Paxinos and Watson (2007). Images of the parabrachial pigmented area (PBP) and the paranigral area (PN) subregions of the posterior VTA were captured in z-stacks (1 μm) with at least 5 tissue slices per rat and 5-6 rats per drug group. STEREO INVESTIGATOR software (MBF Bioscience; Williston, Va.) was used to quantify soma size using the optical fractionator probe to survey a sample of neurons in each z-stack while the nucleator probe was used to measure the cross-sectional area and volume of each cell soma. The optical fractionator probe was used to quantify the number of cells in a particular section of tissue through systematic random sampling. Between 12 and 16 regions were surveyed per z-stack. While the optical fractionator probe utilized stereological techniques to select a random sample to be analyzed, the nucleator probe measured the cross-sectional area of each neuron. Therefore, the simultaneous use of these probes systematically assessed neurons in the PBP and PN regions of the VTA in each subject, and provided morphological data for these cells including surface area (μm^2) and volume (μm^3). Cell somas were eligible to be quantified if they were located within the counting frame and/or if the soma touched either of the nucleator frame's green borders. Neurons were ineligible if located outside the counting frame and/or if their soma touched the frame's red borders. After determining this optimum depth, the center of the soma was located and analyzed by the nucleator probe. To eliminate bias associated with tissue orientation, nucleator rays were randomly arranged between quantifications. […]

rats = details: cited from earlier work

NC(=O)CNC(=O)[C@@H]1CCC(=O)NCCCC[C@@H](NC(=O)[C@@H](N)Cc2ccc(O)cc2)C(=O)N[C@@H](Cc2c[nH]c3ccccc23)C(=O)N[C@@H](Cc2ccccc2)C(=O)N1 [ZH853, Tyr-c[D-Lys-Trp-Phe-Glu]-Gly-NH2]
Response rate impairment % ([1]; bolus injections): 15% and 15.1% | Response rate impairment % ([1]; cumulative injections): 0.8% | response rates for food during test sessions ([1]; i.v., compared to vehicle): not impaired; also recorded: lowest among all compounds tested | self-administration behavior during maintenance sessions (male rats; after acquisition of oxycodone SA, drug continued or substituted, i.v. infusions): the self-administration behavior extinguished over time; also recorded: reduced the number of infusions obtained (C) and active lever responses (D) over maintenance sessions | rate of extinction of self-administration (male rats; substitution for oxycodone): faster than with vehicle substitution | glial activation (glia): lack of glial activation | surface area of TH-positive somas in pVTA [2]: did not alter | volume of TH-positive somas in pVTA [2]: did not alter | hourly SA intake (peak) (rats; 12-hour SA sessions, 3 mg/Kg/infusion): 1.1 mg/kg/h | reinforcing effects in SA/CPP procedures (rats; rat, in vivo): did not produce reinforcing effects in SA/CPP procedures
